# Test results published in patent publication US20200383969A1, “RIMEGEPANT FOR CGRP RELATED DISORDERS” (Biohaven Pharmaceutical Holding Company Ltd., priority 2018, published 2020).
# Key:
# Type in all cases: in vivo, human
# [1] = Pooled adverse event and liver function test data, Studies 301, 302 and 303
# [2] = Study 201 (BHV3000-201), open label long-term safety study, rimegepant 75 mg, interim analysis
# Excerpt: Clinical Trial-BHV3000-201: Open Label Safety Study in Acute Treatment of Migraine (ClinicalTrials.gov Identifier: NCT 03266588) • Study Type: Interventional (Clinical Trial) • Estimated Enrollment: 2000 participants • Intervention Model: Single Group Assignment • Masking: None (Open Label) • Primary Purpose: Treatment • Official Title: A Multicenter, Open Label Long-Term Safety Study of BHV3000 in the Acute Treatment of Migraine • Actual Study Start Date: Aug. 30, 2017 • Estimated Primary Completion Date: July 2019 • Estimated Study Completion Date: July 2019 • 1. To assess the safety and tolerability of rimegepant (BHV-3000) by measuring the frequency and severity of adverse events and discontinuations due to adverse events [Time Frame: 52 weeks] Number of subjects with treatment-emergent adverse events as assessed through laboratory tests, ECGs, physical exam findings (safety and tolerability) • 1. ALT or […] with total bilirubin>2×ULN [Time Frame: 52 weeks] elevated liver function tests • 2. hepatic related adverse events and hepatic related adverse events that lead to discontinuation [Time Frame: 52 weeks] adverse events related to liver Results from the clinical trial described in Example 10 are summarized as follows. […] Patients were allowed to treat migraine attacks of all severities (mild to severe) up to once daily for a full year. The initial results for hepatic safety and tolerability of rimegepant 75 mg in study participants is based upon review of both adverse events and regularly scheduled liver function tests. Interim hepatic data were reviewed by an external and independent panel of liver experts. […] In the aggregate, it was noted that compared to migraine trials with drugs other than rimegepant, there was a very low incidence of overall elevations of liver function test abnormalities in rimegepant treated patients (1.0% incidence of serum ALT or AST>3× ULN). Subjects will continue to participate in Study 201 with additional data analyses to be submitted in the NDA and required 120-day safety updates. In addition to the interim safety analysis, data from subjects was assessed to determine reductions in the number of headache days per month.
# [3] = Study 301 (BHV3000-301), Phase 3, rimegepant 75 mg tablet vs placebo, acute treatment of migraine
# Excerpt: Clinical Trial—BHV3000-301: Phase 3: Double-Blind, Randomized, Placebo-Controlled, Safety and Efficacy Trial of BHV-3000 (Rimegepant) for the Acute Treatment of Migraine (ClinicalTrials.gov Identifier: NCT03235479). • Study Type: Interventional (Clinical Trial) • Actual Enrollment: 1490 participants • Allocation: Randomized • Intervention Model: Parallel Assignment • Intervention Model Description: Double-blind to Sponsor, Investigator and Subject Randomized Controlled Trial • Masking: Triple (Participant, Care Provider, Investigator) • Masking Description: Double-blind to Sponsor, Investigator and Subject • Primary Purpose: Treatment • Official Title: BHV3000-301: Phase 3: Double-Blind, Randomized, Placebo-Controlled, Safety and Efficacy Trial of BHV-3000 (Rimegepant) for the Acute Treatment of Migraine • 1. Pain freedom of rimegepant (75 mg tablet) compared with placebo in the acute treatment of migraine will be measured using the number of evaluable subjects that report no pain at 2 hours post-dose. [Time Frame: Two hours post dose] • Pain will be measured on a 4 point Likert scale (0=none, 1=mild, 2=moderate, 3=severe) • 2. Freedom from the most bothersome symptom (MBS) of rimegepant (75 mg tablet) compared with placebo will be measured using the number of evaluable subjects that report the absence of their MBS at 2 hours post-dose. [Time Frame: Two hours post dose] • The MBS (nausea, phonophobia or photophobia) will measured using a binary scale (0=absent, 1=present). • 1. […] [Time Frame: 2 hours-24 hours post-dose] • Sustained Pain Freedom as measured by a 4 point numeric rating scale (None, Mild, Moderate, Severe) • 2. The difference between rimegepant (75 mg tablet) compared to placebo by tabulating the absence of photophobia at 2 hours post-dose in the subset of subjects that reported the presence of photophobia at headache baseline. [Time Frame: 2 hours post-dose] • Photophobia • 3. To evaluate rimegepant (75 mg tablet) compared to placebo by tabulating the number of subjects that report the absence of phonophobia at 2 hours post-dose in the subset of subjects that reported the presence of phonophobia at headache baseline. [Time Frame: 2 hours post-dose] • Phonophobia • 4. To measure the difference between rimegepant (75 mg tablet) compared to placebo on Pain Relief, at 2 hours post-dose, for those that report a pain level of moderate or severe at baseline and then report a pain level of none or mild. [Time Frame: 2 hours post-dose] • Pain Relief as measured by a 4 point numeric rating scale (None, Mild, Moderate, Severe) • 5. Freedom from Nausea by tabulating the number of subjects that report the absence of nausea at 2 hours post-dose in the subset of subjects that reported the presence of nausea at headache baseline. [Time Frame: 2 hours post-dose] • Freedom from Nausea • 6. The difference between rimegepant (75 mg tablet) compared to placebo on the probability of requiring rescue medication using the number of subjects that take rescue medication within […] administration of study medication (BHV3000 or placebo). [Time Frame: up to 24 hours post-dose] • Requiring Rescue Medication • 7. […] [Time Frame: 2 hours-24 hours post-dose] • Sustained Pain Freedom • 8. […] [Time Frame: 2 hours-24 hours post-dose] • Sustained Pain Relief as measured by a 4 point numeric rating scale (None, Mild, Moderate, Severe) • 9. […] [Time Frame: 2 hours-48 hours post-dose] • Sustained Pain Relief as measured by a 4 point numeric rating scale (None, Mild, Moderate, Severe) • 10. To measure the difference between rimegepant (75 mg tablet) relative to placebo on the proportion of subjects able to function normally, at 2 hours, using the number of subjects that self-report as “normal” on the functional disability scale. [Time Frame: 2 hours post-dose] • Functional Disability Score • 11. […]
# [4] = pooled Studies 301, 302, 303, n = 1,771
# [5] = both subjects not dosed before onset
structure (smiles),measurement,setting,value
"N[C@@H]1c2cccnc2[C@H](OC(=O)N2CCC(n3c(=O)[nH]c4ncccc43)CC2)CC[C@H]1c1cccc(F)c1F [Rimegepant, [(5S,6S,9R)-5-amino-6-(2,3-difluorophenyl)-6,7,8,9-tetrahydro-5H-cyclohepta[b]pyridin-9-yl] 4-(2-oxo-3H-imidazo[4,5-b]pyridin-1-yl)piperidine-1-carboxylate]",Bilirubin elevations > 2 × ULN,"[1]; across Studies 301, 302 and 303",no patients experienced elevations
same,"ALT or AST >5 × ULN, patients","[1]; pooled Studies 301, 302, 303, AST elevation, not drug-related per investigator",(0.06%)^2
same,"ALT or AST >3 × ULN, patients",[1]; [4],(0.1%)
same,"ALT or AST >ULN, patients",[1]; [4],(2.7%)
same,">=30.0% decrease in migraines (headache days) per month, percent of subjects","[2]; Study 201, Overall, n 1731, treatment vs observation phase",30.2%
same,Onset of reductions in the mean number of headache days per month,"[2]; Study 201, continued in subsequent months",as early as the first month
same,Hy's Law cases,[2]; Study 201 interim,no Hy's Law cases
same,Incidence of serum ALT or AST>3× ULN,[2]; Study 201 interim,1.0%
same,Safety and tolerability of long-term dosing,"[2]; Study 201 interim analysis, 75 mg up to once daily",consistent with the profile observed in phase 1-3 studies to date
same,Liver safety signal,"[2]; Study 201 interim, including near-daily dosing (≥15 doses/month)",no liver safety signal detected
same,Liver cases assessed as probably related to study drug,"[2]; Study 201 interim, independent panel of liver experts",no liver cases
same,SAEs related to the study drug,[3],No SAE
same,"AE dizziness, incidence",[3]; 75 mg tablet,0.7%
same,"AE dizziness, n/N",[3]; 75 mg tablet,4/546
same,"AE nausea, incidence",[3]; 75 mg tablet,0.9%
same,"AE nausea, n/N",[3]; 75 mg tablet,5/546
same,Bilirubin elevations >2 times ULN,[3]; 75 mg tablet,No bilirubin elevations
same,"Serum ALT or AST > ULN, n/N",[3]; 75 mg tablet,11/546
same,"Serum ALT or AST > ULN, subjects",[3]; 75 mg tablet,2.0%
same,"Transaminase level >3 times ULN, number of subjects",[3]; 75 mg tablet,One
same,"Transaminase level >3 times ULN, subjects",[3]; 75 mg tablet,0.2%
same,Transaminase level >5 times ULN,[3]; 75 mg tablet,no subject
same,Normal function at 2 hours (functional disability) vs placebo,[3]; P<0.0001,greater proportion
same,"Serious AEs, number of subjects",[3]; [5],2
same,"Serious AEs, subjects",[3]; [5],0.4%
same,Sustained pain relief from 2 through 48 hours postdose vs placebo,"[3]; single dose, no rescue medication, P=0.0003",superiority versus placebo
same,Sustained pain freedom from 2 through 48 hours postdose vs placebo,"[3]; single dose, no rescue medication, P=0.013",superiority versus placebo
